Test results: patent publication US10682409B2, “Therapeutic treatment” (priority 2012, dated 2020)

Assays:
Format in all cases: in vivo, human
[1] = test system: patients suffering from ADHD; test: Clinical Global Impression-Severity scale (CGI-S), Patients A-H
Procedure: In an embodiment, attentiveness is measured using the Clinical Global Impression rating scales to measure symptom severity, treatment response and the efficacy of treatments in treatment studies of patients with mental disorders (Guy, W., 1976). In an embodiment, attentiveness is measure using the Clinical Global Impression-Severity scale (“CGI-S”). In an embodiment, CGI-S is a 7-point scale that requires the clinician to rate the severity of the patient's illness at the time of assessment, relative to the clinician's past experience with patients who have the same diagnosis. Considering total clinical experience, a patient is assessed on severity of mental illness at the time of rating 1, normal, not at all ill; 2, borderline mentally ill; 3, mildly ill; 4, moderately ill; 5, markedly ill; 6, severely ill; or 7, extremely ill. In an embodiment, attentiveness is measured using the Clinical Global Impression-Improvement scale (“CGI-I”). […] In an embodiment, attentiveness is measured using the Clinical Global Impression-Efficacy Index (“CGI-E”).
(§1) The age range of the patients was from 6-15 years of age, with a mean age at the start of treatment for ADHD of 8.4 years of age. The mean age at the start of the combination treatment wherein the patient was administered an amphetamine or methylphenidate and an appetite stimulant was 10.3 years of age. The mean treatment period for the eight patients was 1,108 days with a mean of 2.55 ADHD medication changes during the treatment period. Attentiveness in the eight patients was measured using CGI-S and CGI-I. Patients weight and height velocity were measured to identify a difference in weight and height gain prior to and after addition of an appetite stimulant to the treatment for ADHD. Weight velocity was calculated by taking three time points, time 0 upon initiation of medication to treat ADHD, time 1 addition of an appetite stimulant, time 2 the last data point after initiation of combination treatment. The formula to calculate weight velocity for stimulant alone is (weightT1−weight T0)/days from Time 0 to time 1. The formula to calculate weight velocity for combination treatment is (weightT2−weight T1)/days from time 1 to time 2.

[2] = Examples 3-11: weight and height (velocity, percentile curve, course) of ADHD Patients A-H
Procedure: In an embodiment, a therapeutically effective amount of a therapeutic compound disclosed herein increases the weight or height of an individual is determined by an increase in the individual's weight or height velocity as compared to an individual nor receiving a therapeutic compound for appetite reduction. In an embodiment, weight and/or height velocity can be calculated by taking measurements of height and/or weight of an individual over a period of time and measuring an increase or decrease in an individual's height and/or weight over the period of time. In an embodiment, weight velocity is calculated by taking three time points, time 0 upon initiation of medication to treat ADHD, time 1 addition of an appetite stimulant, time 2 the last data point after initiation of combination treatment. In an embodiment, a formula to calculate weight and height velocity for stimulant alone is (weightT1−weight T0)/days from Time 0 to time 1. In an embodiment, a formula to calculate weight velocity for combination treatment is (weightT2−weight T1)/days from time 1 to time 2. In an embodiment, to evaluate whether weight velocity increased after addition of an appetite stimulant, the weight velocity of time 0 to time 1 is compared to the weight velocity from time 1 to time 2. In an embodiment, height velocity is calculated by taking three time points, time 0 upon initiation of medication to treat ADHD, time 1 addition of an appetite stimulant, time 2 the last data point after initiation of combination treatment. The formula to calculate height velocity for stimulant alone is (weightT1−weight T0)/days from Time 0 to time 1. The formula to calculate height velocity for combination treatment is (weightT2−weight T1)/days from time 1 to time 2. In an embodiment, to evaluate whether height velocity increased after addition of an appetite stimulant, the height velocity of time 0 to time 1 is compared to the height velocity from time 1 to time 2.
Eight patients, identified as patients A-H, that came in suffering from ADHD were treated for ADHD. […] Each patient was then prescribed an appetite simulant to be taken along with the amphetamine or methylphenidate. The patients' weight, height and attentiveness were then followed during the course of treatment.
as §1

[3] = Example 2 case study: child with ADHD on methylphenidate, then Periactin (height, weight, percentiles, attentiveness); settings: for height percentile compared to girls their age / weight percentile compared to girls their age / weight: methylphenidate
Text: Case study: A child was presented by their parents for symptoms of attention deficit hyperactivity disorder. Their size at evaluation was 4′1¾″ and 50 lbs, corresponding to the 81st and 50th percentiles when compared to girls their age. […] At three months following the initiation of treatment for ADHD, the child was 4′2⅞″ and 50½ lbs, corresponding to the 85th and 34rd percentiles when compared to girls their age. At one year, they were 4′4⅜″ and 53 lbs, corresponding to the 84th and 36th percentiles when compared to girls their age. At two years they were 4′5¾″ and 54 lbs, corresponding to the 72nd and 17th percentiles when compared to girls their age. At four years of treatment they were 4′7⅜″ and 59 lbs, corresponding to 70th and 14th percentiles when compared to girls their age. At five years of treatment they were 4′9⅞″ and 64½ lbs, corresponding to 59th and 7th percentiles when compared to girls their age.
The child was then prescribed Periactin at a dosage of 2 mg b.i.d. to attempt to stimulate appetite. The dose was taken in the morning and then in the afternoon. After one year they were 4′11½″ and 72½ lbs, corresponding to 33rd and 5th percentiles when compared to girls their age. The child was then prescribed Periactin at a dose of 4 mg b.i.d. After two months on this dose, they were 5′¼″ and 76 lbs, corresponding to 37th and 8th percentiles when compared to girls their age. At 8 months on this dose, they were 5′½″ and 80 lbs, corresponding to 41st and 8th percentiles when compared to girls their age. At one year on this dose, they were 5′2¾″ and 89½ lbs, corresponding to 51st and 17th percentiles when compared to girls their age. At 18 months on this dose, they were 5′3⅝″ and 99½ lbs, corresponding to 56th and 30th percentiles when compared to girls their age. Additionally, the attentiveness of the child increase following the prescription of Periactin as they increased their food intake during the day.

[4] = test system: patient suffering from ADHD; test: Example 1: patient suffering from ADHD treated with and without an appetite stimulant (appetite, blood glucose, attentiveness by CGI-S and CGI-I)
Text: A patient suffering from ADHD is prescribed and administered an amphetamine to treat ADHD. The patient takes the amphetamine once a day in the morning or afternoon. […] As a result, the glucose level measured in the blood increases as shown in FIG. 1 and the patient's attentiveness recovers as measured by CGI-S and CGI-I. By taking the appetite stimulant during the time when the patient was awake, the patient increased their caloric intake during times when the patient needed to maintain their attentiveness in order to have reasonable cognition and/or social behaviour.

[5] = Patient E, Concerta 27 mg then Focalin XR 10-15 mg alone, FIG. 12
[6] = various forms of methylphenidate

Structure (SMILES): COC(=O)C(c1ccccc1)C1CCCCN1 (centres unmarked) [Concerta, methylphenidate]
- CGI-S score ([1]; Patient A, Concerta 18 mg alone, constant for almost 400 days, FIG. 5): 4
- CGI-S score ([1]; Patient C, Concerta 36 mg alone, FIG. 9): 5
- CGI-S score ([1]; Patient D, Concerta 18 mg before combination, FIG. 11): 6
- weight course ([2]; Patient A, Concerta 18 mg alone, from about day 371, FIG. 4): began to lose weight again
- weight course ([2]; Patient C, Concerta 36 mg alone, FIG. 8): little weight gain followed by weight loss
- weight course [2, 5]: did not increase substantively

Structure (SMILES): COC(=O)C(c1ccccc1)C1CCCCN1 (centres unmarked) [methylphenidate]
- height percentile compared to girls their age ([3]; five years): 59 percentile
- weight percentile compared to girls their age ([3]; five years): 7 percentile
- height percentile compared to girls their age ([3]; four years): 70 percentile
- weight percentile compared to girls their age ([3]; four years): 14 percentile
- weight ([3]; four years of treatment): 59 lbs
- height percentile compared to girls their age ([3]; one year): 84 percentile
- weight ([3]; one year): 53 lbs
- weight percentile compared to girls their age ([3]; one year): 36 percentile
- height percentile compared to girls their age ([3]; three months): 85 percentile
- weight percentile compared to girls their age ([3]; three months): 34 percentile
- height percentile compared to girls their age ([3]; two years): 72 percentile
- weight ([3]; two years): 54 lbs
- weight percentile compared to girls their age ([3]; two years): 17 percentile
- response of ADHD to treatment [3, 6]: responded well
- side-effect [3, 6]: suppression of appetite and a lack of significant weight gain

Structure (SMILES): COC(=O)[C@H](c1ccccc1)[C@H]1CCCCN1 [Focalin XR, dexmethylphenidate]
- CGI-S score ([1]; Patient E, Focalin XR 10 mg (before dose increase), FIG. 13): 6
- CGI-S score ([1]; Patient E, Focalin XR 15 mg from day 162, FIG. 13): 5
- CGI-S score ([1]; Patient G, Focalin XR 15 mg alone (dropped from 5), FIG. 17): 4
- weight course ([2]; Patient B, Focalin XR 10 mg then 15 mg alone, FIG. 6): slow and then became slightly erratic
- weight course [2, 5]: did not increase substantively

Structure (SMILES): C[C@@H](Cc1ccccc1)NC(=O)[C@@H](N)CCCCN [Vvyanase, lisdexamfetamine]
- CGI-S score ([1]; Patient H, Vvyanase 40 mg alone (dropped from 6), FIG. 19): 5
- weight course ([2]; Patient H, Vvyanase 40 mg alone, FIG. 18): little weight gain

Structure (SMILES): COC(=O)C(c1ccccc1)C1CCCCN1 (centres unmarked) [Daytrana patch, methylphenidate]
- CGI-S score ([1]; Patient F, Daytrana patch 15 mg (day 469), 20 mg (day 606), FIG. 15): 5

Structure (SMILES): CC(N)Cc1ccccc1 (centres unmarked) [amphetamine]
- attentiveness as measured by CGI-S and CGI-I ([4]; amphetamine once a day alone): lack of attentiveness
- glucose level measured in the blood ([4]; amphetamine once a day alone, FIG. 1): drops
- appetite ([4]; amphetamine once a day in the morning or afternoon, alone): loss of appetite

Structure (SMILES): COC(=O)C(c1ccccc1)C1CCCCN1 (centres unmarked) [Ritalin LA, methylphenidate]
- CGI-S score ([1]; Patient F, Ritalin LA 20 mg and Focalin 5 mg, FIG. 15): 7
- CGI-S score ([1]; Patient F, Ritalin LA 30 mg and Focalin 5 mg from day 46, FIG. 15): 6
- weight course ([2]; Patient F, Ritalin LA with Focalin, then Daytrana patch, without Periactin, FIG. 14): did not increase substantively
